This is an account of results in patent US20140234359A1, “PLANT VIRAL VACCINES AND THERAPEUTICS” (priority 2011, published 2014).

This test deals with T-24 human bladder cancer cells. Put plainly: Cell death of T-24 cells after anti-viral treatment, flow cytometry. In kind it is cell-based. As to conditions: 10 μM efavirenz, 48 hours, vs methanol control. As to the method:
T-24 human bladder cells were grown in a 12 well plate in a total volume of 2 mL of 10% FBS complete RPMI. Cells were left untreated or treated with 2 μL of methanol (Sigma-Aldrich) or treated with 10 μM efavirenz (Toronto Research Chemicals Cat# E425000). Cells were grown in CO2 incubator at 37° C. for 48 hours. After 48 hours, cells were harvested and counted using trypan blue on a hemocytometer.
The human bladder cancer T24 cell line was used to determine the effects of and anti-viral treatment on human tumor cells infected with plant virus. The T24 cells were grown in culture and then treated or not with the anti-reverse transcriptase drug, efavirenz, for twenty four or forty eight hours. Cell death assays were performed in triplicate. […] It is expected that treatment of the bladder cancer cells with a TLR activator to activate new virus replication in combination with the anti-viral drug will be useful in increasing cell death further. FIG. 2a depicts flow cytometer results on T-24 Human bladder cancer cells treated with efavirenz or methanol control for 48 hours. FIG. 2b is a bar graph depiction of the data.
A general note: In flow cytometry, cells or beads pass a laser one at a time.

As for `O=C1Nc2ccc(Cl)cc2[C@@](C#CC2CC2)(C(F)(F)F)O1` [efavirenz], the cell death entry was “increased death”. Besides, the cell death result (listed as Efavirenz) is given as “effective in killing a percentage of the cells”.
